Several values for one entry are separate records, joined by “and”; a condition that tells them apart may be missing. Equal values may be shown once.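 Five concentrations, 48 hours, 96-well plates. GI50 marks 50% less growth. The concentration for full growth arrest is given as TGI.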
Tested on: OVCAR-4 ovarian
Experiment: NCI tumour cell line growth inhibition, 48 h

Compound | GI50 [µM] | TGI [µM]
CCCCC#CC1=C(Br)C(=O)OC1 | 3.99 | 11.3
Cc1ccc(SC2c3ccc(C)cc3Oc3nc(N)c(C#N)c(N)c32)cc1 (centres undefined) | 1.8 | 3.29
Cc1cn2c(=O)c3ncn(C4OC(CO)C(O)C4O)c3n(C)c2n1 (centres undefined) |  | > 100
O=C(Nc1ccc(Br)cc1F)c1cc(F)ccc1O | 0.612 | > 27.8
CC/C=C\C[C@H](O)C/C=C1/C(=O)C(Cl)=C[C@@H]1C/C=C\CCCC(=O)OC | 0.723 | 3.21
c1ccc(-c2nnc(-c3ccccn3)s2)nc1 | > 100 | > 100
CN1CCN(C2CCN(C(=O)Nc3cc(Oc4ccc(NC(=O)C5(C(=O)Nc6ccc(F)cc6)CC5)c(F)c4)ccn3)CC2)CC1 | 1.14 | 9.84
CCN1CCN(C(=O)[C@@]2(C)CC[C@]3(C)CC[C@]4(C)C(=CC(=O)[C@@H]5[C@@]6(C)CC[C@H](OC7C[C@@H](O)[C@@H](O)C(C)O7)C(C)(C)[C@@H]6CC[C@]54C)[C@@H]3C2)CC1 (some centres undefined) | 1.27 | 3.08
Nc1nn2cc(F)cnc2c1C(=O)Nc1cncc(F)c1N1CCC(C(=O)N2CCN(C3COC3)CC2)CC1 | 0.326 | 7.86

Tested on: NCI-H522 lung
Experiment: NCI tumour cell line growth inhibition, 48 h

Compound | GI50 | TGI
Oc1ccc(Nc2ncnc3c2sc2ncccc23)cc1 | 0.0369 µM | > 100 µM
COc1cccc(CC(C)=C(c2ccc(OCCN(C)C)cc2)c2ccc(OCCN(C)C)cc2)c1 | 2.86 µM | 7.95 µM
COC(=O)COc1ccccc1/C=C1\N=C(c2ccccc2)N(c2cc(C(F)(F)F)ccc2Cl)C1=O | 38.2 µM | > 100 µM
C=C1C(=O)OC2CC(C)C(C(CC(C)=O)OC(C)=O)=CCC12 (centres undefined) |  | 3.27 µM
CC(=O)OC1COC(Oc2c(C)c3c4c(c2O)[C@@H](C)CC[C@@H]4[C@@H](C)C[C@H]3C=C(C)C)C(O)C1OC(C)=O (some centres undefined) | 17.6 µM | 35 µM
S=C(Nc1ccc(Cl)cc1)Nc1ccc(-c2nc3ccccc3s2)cc1 | 5.61 µM | 19.6 µM
O=c1/c(=C/c2ccccc2[N+](=O)[O-])sc2nnc(-c3ccco3)n12 |  | 32.9 µM
COC(=O)C[C@](O)(CCCC(C)(C)O)C(=O)O[C@@H]1C(OC)=C[C@]23CCCN2CCc2cc4c(cc2[C@H]13)OCO4 | 0.0482 µM and < 0.01 µM | 0.186 µM and 0.0288 µM
C[N+](C)(C)CC1CCCc2ccccc2C1=O (centres undefined) | 0.861 µM | 3.23 µM and 2.36 µM
COc1cc(C(=O)N2CCN(C=O)C2=S)cc(OC)c1OC | 5.8 µM | 20.8 µM
Cn1c(I)c(C#CCO[Si](C)(C)C(C)(C)C)c(=O)[nH]c1=O | 1.8 µM | 3.95 µM
CCCCC#CC1=C(Br)C(=O)OC1 | 2.27 µM | 5.08 µM
Cc1ccc(SC2c3ccc(C)cc3Oc3nc(N)c(C#N)c(N)c32)cc1 (centres undefined) | 1.67 µM | 3.11 µM
Cc1cn2c(=O)c3ncn(C4OC(CO)C(O)C4O)c3n(C)c2n1 (centres undefined) |  | > 100 µM
O=C(Nc1ccc(Br)cc1F)c1cc(F)ccc1O | 0.319 µM | 4.47 µM

Source: PubChem BioAssay (NCI)
